# Reference: ChEMBL document CHEMBL1144967, “Protective effect of imidazolopyrazinone antioxidants on ischemia/reperfusion injury” (2003)
# Legend:
# [1] = Antioxidant efficiency of compounds was evaluated by the lag phase duration until onset of linoleate peroxidation induced by AAPH
# Cricetinae gen. sp. = assay: Ability to protect microvascular damages in ischemia/reperfusion (in vivo) was determined by measuring the inhibition of leaky sites, 30-min after the start of reperfusion at 30 mg/kg; type: functional, Cricetulus griseus; conditions: 0.5 h
Lag time [1] [min],Structure (SMILES),inhibition in vivo at 30 mg/kg (Cricetinae gen. sp.) [%]
111,Oc1c(-c2ccc(Cl)cc2)nc2cnccn12,82
78.7,Cc1ccc(-c2nc3cnccn3c2O)cc1,67
146,Oc1c(-c2ccccc2)nc2cnccn12,79
122,Oc1c(-c2ccc(F)cc2)nc2cnccn12,37
79.6,COc1ccc(-c2nc3cnccn3c2O)cc1,85

# Further lines, the compound ahead of its results:
Structure (SMILES),Lag time [1] [min],inhibition in vivo at 30 mg/kg (Cricetinae gen. sp.) [%]
Cc1nc2cnccn2c1O,134,49
Oc1c(-c2ccc3ccccc3c2)nc2cnccn12,74.9,57
Cc1c(C)c2c(c(C)c1O)CCC(C)(C(=O)O)O2 (stereo not drawn),128,–
COc1cc(C(C)=O)ccc1O [APOCYNIN],–,59
Oc1c(-c2ccc(-c3ccccc3)cc2)nc2cnccn12,77.5,71
